Measurements as given in ChEMBL document CHEMBL5252610, “Synthesis, Characterization, and Bioactivity of the Lichen Pigments Pulvinamide, Rhizocarpic Acid, and Epanorin and Congeners” (J Nat Prod, 2023).
Converted amounts (≈) assume the structure as drawn.

Key:
[1] = Cytotoxicity against human NFF cells assessed as reduction in cell viability incubated for 96 hrs by resazurin based assay; assay type: toxicity; details: read-out: MIC
[2] = Anticancer activity against mouse NS-1 cells assessed as reduction in cell viability incubated for 96 hrs by resazurin based assay; assay type: functional
Candida albicans = experiment: Antifungal activity against Candida albicans ATCC 10231 assessed as bacterial growth inhibition incubated for 48 hrs by bromocresol green based broth dilution assay; assay type: functional
Staphylococcus aureus = experiment: Antibacterial activity against Staphylococcus aureus ATCC 25923 assessed as bacterial growth inhibition incubated for 48 hrs by resazurin microtiter assay; assay type: functional
Bacillus subtilis = experiment: Antibacterial activity against Bacillus subtilis ATCC 6633 assessed as bacterial growth inhibition incubated for 48 hrs by resazurin microtiter assay; assay type: functional
Saccharomyces cerevisiae = experiment: Antifungal activity against Saccharomyces cerevisiae ATCC 9763 assessed as bacterial growth inhibition incubated for 48 hrs by bromocresol green based broth dilution assay; assay type: functional
Giardia intestinalis = experiment: Antiparasitic activity against Giardia intestinalis 713 assessed as bacterial growth inhibition incubated for 96 hrs by microtiter assay; assay type: functional; details: Giardia duodenalis
Spodoptera littoralis [3] = experiment: Insecticidal activity against Spodoptera littoralis neonate larvae assessed as reduction in weight gain of larvae; assay type: functional
Spodoptera littoralis [4] = experiment: Insecticidal activity against Spodoptera littoralis assessed as reduction in number of pupae in adulthood (Rvb=90%); assay type: functional; design: scale not given: the % may be the effect or the level left

CSC[S+]([O-])C[C@H](CO)NC(=O)/C=C/c1c(C)[nH]c(=O)[nH]c1=O (stereo partly drawn)
MCC at 96 h [1]: 0.6 µg/mL | MIC [2]: 0.6 µg/mL (≈ 1.66 µM)

COC(=O)[C@H](CC(C)C)NC(=O)/C(=C1/OC(=O)C(c2ccccc2)=C1O)c1ccccc1
MIC (Candida albicans): > 200 µg/mL | MCC at 96 h [1]: > 100 µg/mL | MIC (Staphylococcus aureus): > 100 µg/mL | MIC (Bacillus subtilis): > 100 µg/mL | MIC (Saccharomyces cerevisiae): > 200 µg/mL | MIC [2]: 25 µg/mL (≈ 57.4 µM) | MIC (Giardia intestinalis): 50 µg/mL (≈ 115 µM)

O=C1O/C(=C(/C(=O)N[C@@H](Cc2ccccc2)C(=O)O)c2ccccc2)C(O)=C1c1ccccc1
MIC (Candida albicans): > 200 µg/mL | MCC at 96 h [1]: > 100 µg/mL | MIC (Staphylococcus aureus): > 100 µg/mL | MIC (Bacillus subtilis): 100 µg/mL (≈ 220 µM) | MIC (Saccharomyces cerevisiae): > 200 µg/mL | MIC [2]: > 100 µg/mL | MIC (Giardia intestinalis): > 100 µg/mL

COC(=O)[C@H](Cc1ccccc1)NC(=O)/C(=C1/OC(=O)C(c2ccccc2)=C1O)c1ccccc1
MIC (Candida albicans): > 200 µg/mL | MCC at 96 h [1]: > 100 µg/mL | ED50 (Spodoptera littoralis [3]): 71 µmol/g | MIC (Staphylococcus aureus): > 100 µg/mL | MIC (Bacillus subtilis): 50 µg/mL (≈ 106 µM) | Activity (Spodoptera littoralis [4]): 25% | MIC (Saccharomyces cerevisiae): > 200 µg/mL | MIC [2]: 3.1 µg/mL (≈ 6.6 µM) | MIC (Giardia intestinalis): 100 µg/mL (≈ 213 µM)

NC(=O)/C(=C1/OC(=O)C(c2ccccc2)=C1O)c1ccccc1
MIC (Candida albicans): 200 µg/mL (≈ 651 µM) | MIC (Staphylococcus aureus): > 100 µg/mL | MIC (Bacillus subtilis): 50 µg/mL (≈ 163 µM) | MIC (Saccharomyces cerevisiae): 100 µg/mL (≈ 325 µM)

COC(=O)[C@@H](Cc1ccccc1)NC(=O)/C(=C1/OC(=O)C(c2ccccc2)=C1O)c1ccccc1
MIC (Candida albicans): > 200 µg/mL | MCC at 96 h [1]: > 100 µg/mL | MIC (Staphylococcus aureus): 50 µg/mL (≈ 106 µM) | MIC (Bacillus subtilis): 50 µg/mL (≈ 106 µM) | MIC (Saccharomyces cerevisiae): > 200 µg/mL | MIC [2]: 50 µg/mL (≈ 106 µM) | MIC (Giardia intestinalis): 25 µg/mL (≈ 53.2 µM)

CN(CC[C@H](N)CC(=O)N[C@H]1C=C[C@H](n2ccc(N)nc2=O)O[C@@H]1C(=O)O)C(=N)N.Cl
MIC (Candida albicans): > 200 µg/mL | MIC (Saccharomyces cerevisiae): 3.1 µg/mL

CC(C)C[C@H](NC(=O)/C(=C1/OC(=O)C(c2ccccc2)=C1O)c1ccccc1)C(=O)O
MIC (Candida albicans): > 200 µg/mL | MCC at 96 h [1]: > 100 µg/mL | MIC (Staphylococcus aureus): > 100 µg/mL | MIC (Bacillus subtilis): > 100 µg/mL | MIC (Saccharomyces cerevisiae): > 200 µg/mL | MIC [2]: > 100 µg/mL | MIC (Giardia intestinalis): > 100 µg/mL

COC(=O)[C@@H](CC(C)C)NC(=O)/C(=C1/OC(=O)C(c2ccccc2)=C1O)c1ccccc1
MIC (Candida albicans): > 200 µg/mL | MCC at 96 h [1]: > 100 µg/mL | MIC (Staphylococcus aureus): 100 µg/mL (≈ 230 µM) | MIC (Bacillus subtilis): 50 µg/mL (≈ 115 µM) | MIC (Saccharomyces cerevisiae): > 200 µg/mL | MIC [2]: 50 µg/mL (≈ 115 µM) | MIC (Giardia intestinalis): 25 µg/mL (≈ 57.4 µM)

Cc1ncc([N+](=O)[O-])n1CCO [METRONIDAZOLE]
MIC (Giardia intestinalis): 0.3 µg/mL (≈ 1.75 µM)

O=C1O/C(=C(/C(=O)O)c2ccccc2)C(O)=C1c1ccccc1 [PULVIC ACID]
MIC (Candida albicans): > 100 µg/mL | MIC (Staphylococcus aureus): > 100 µg/mL | MIC (Bacillus subtilis): > 100 µg/mL | MIC (Saccharomyces cerevisiae): > 100 µg/mL

O=C1OC2=C(c3ccccc3)C(=O)OC2=C1c1ccccc1 [PULVINIC DILACTONE]
MIC (Candida albicans): > 100 µg/mL | MIC (Staphylococcus aureus): > 100 µg/mL | MIC (Bacillus subtilis): > 100 µg/mL | MIC (Saccharomyces cerevisiae): > 100 µg/mL

CN(C)[C@@H]1C(O)=C(C(N)=O)C(=O)[C@@]2(O)C(O)=C3C(=O)c4c(O)cccc4[C@@](C)(O)[C@H]3C[C@@H]12 [TETRACYCLINE]
MIC (Staphylococcus aureus): 12.5 µg/mL (≈ 28.1 µM) | MIC (Bacillus subtilis): 6.3 µg/mL (≈ 14.2 µM)
